# Reference: patent US20220257597A1, “Methods of Administering Elagolix” (AbbVie Inc., priority 2021, published 2022)
# Columns and labels:
# [1] = Drug-drug interaction study: effect of multiple doses of elagolix sodium on pharmacokinetics of omeprazole (CYP2C19 substrate) and its metabolites; conditions: for M:P AUCinf Ratio, Relative Bioavailability Point Estimate / M:P AUCt Ratio, Relative Bioavailability Point Estimate: Day 11 vs. Day 1; for AUCinf / AUCt / Cmax: geometric mean; for RAUCinf = metabolite-to-omeprazole AUCinf ratio / RAUCt = metabolite-to-omeprazole AUCt ratio / Tmax: median; for M:P AUCinf Ratio, Central Value Reference / M:P AUCt Ratio, Central Value Reference: Study Day 1: omeprazole 40 mg; for M:P AUCinf Ratio, Central Value Test / M:P AUCt Ratio, Central Value Test: Study Day 11: elagolix 300 mg BID + omeprazole 40 mg
# Experimental: Subjects: Twenty adult premenopausal female subjects were enrolled in the study.
# Beginning on Day 3, subjects received elagolix 300 mg BID under fasting conditions every day until Day 10. […] Doses of elagolix were separated by approximately 12 hours.
# Testing was performed for CYP2C19 variants including the *2 (r54244285), *3 (r54986893), *4 (r528399504), *8 (r541291556), *10 (r56413438) and *12 (r555640102) alleles.
# Safety was evaluated during confinement and at each study visit through adverse event monitoring, vital signs measurements, physical examinations, and routine laboratory tests.
# [2] = Drug-drug interaction study: effect of multiple doses of elagolix sodium on pharmacokinetics of bupropion (CYP2B6 substrate) and OH-bupropion
# Experimental: Subjects: Twenty four (24) adult premenopausal women in generally good health participated in this study.
# Elagolix 300 mg BID (as 300 mg immediate release tablets) was administered in the morning and evening on days 1 through 14 in period 2. […] No food was consumed for 2 hours prior to the evening doses of elagolix continuing through 2 hours after. The doses of elagolix were separated by approximately 12 hours.
# Individual PK parameters (peak concentration [Cmax] and area under the concentration-time curve [AUC]) were estimated using noncompartmental methods.
# Central value ratios (90% confidence intervals) for Cmax, AUC, and metabolite to parent ratios (MPRs) (day 11, period 2 vs. day 1, period 1) were calculated to assess the DDIs. Safety was evaluated through assessment of adverse events, vital signs, electrocardiogram, and clinical laboratory tests.
# Adverse events (AEs) were monitored throughout the DDI study. Additional safety evaluations included monitoring of physical examinations, vital signs, electrocardiogram variables, and clinical laboratory values were assessed
# [3] = Drug interaction studies: change in pharmacokinetics of co-administered drug in the presence of elagolix; type: in vivo, human; conditions: elagolix 300 mg twice daily
# Experimental: Drug interaction studies were performed with elagolix and other drugs likely to be co-administered and with drugs commonly used as probes for pharmacokinetic interactions. Tables 8 and 9 summarize the pharmacokinetic effects when elagolix was co-administered with these drugs.
# [4] = Drug interactions: effects of ORIAHNN on other drugs; conditions: co-administration of ORIAHNN
# [5] = Drug interactions: effects of ORILISSA on other drugs; conditions: co-administration of ORILISSA
# [6] = Phase 1 open-label study: coadministration of combined oral contraceptive (EE+LNG) with elagolix sodium, pharmacokinetics, safety and tolerability; type: in vivo, human; conditions: for AUC(0-inf) / AUC(0-t) / Cmax: female, human, in vivo, oral
# Experimental: Objective: To evaluate the effect of elagolix on the pharmacokinetics, safety, and tolerability of a single dose of a combined oral contraceptive (COC) containing EE and LNG in healthy premenopausal female subjects. […] [table] […] Diagnosis and Main Criteria for Inclusion: Subjects were premenopausal females, and age was between 18 and 49 years, inclusive. Test Product, Dose/Strength/Concentration, and Mode of Administration: […] EE/LNG 0.02 mg/0.1 mg tablet; All study drugs were administered orally. Duration of Treatment: […] EE/LNG: 0.02 mg/0.1 mg on two separate occasions. Criteria for Evaluation: Pharmacokinetic: Cmax, Tmax, t1/2 and AUC. Safety: Vital signs, physical examinations, laboratory tests, and adverse events. […] The tabulation of the number of subjects with treatment-emergent adverse events also was provided with further breakdowns by severity rating and relationship to study drug.
# [7] = Study Day 1, omeprazole 40 mg, harmonic mean
# [8] = Study Day 11, omeprazole 40 mg + elagolix 300 mg BID
# [9] = co-administration with elagolix
# [10] = ethinyl estradiol 20 mcg/levonorgestrel 0.1 mg single dose, elagolix 200 mg twice daily x 15 days, N 20
# [11] = following elagolix 200 mg BID for 14 days
# [12] = single 40 mg omeprazole, elagolix 300 mg twice daily
Compound,"M:P AUCinf Ratio, Relative Bioavailability Point Estimate [1]","M:P AUCt Ratio, Relative Bioavailability Point Estimate [1]","AUCinf ([1]; Study Day 1, omeprazole 40 mg) [ng·h/mL]","AUCt ([1]; Study Day 1, omeprazole 40 mg) [ng·h/mL]","Cmax ([1]; Study Day 1, omeprazole 40 mg) [ng/mL]","t1/2 [1, 7] [h]","RAUCinf = metabolite-to-omeprazole AUCinf ratio ([1]; Study Day 1, omeprazole 40 mg)","RAUCt = metabolite-to-omeprazole AUCt ratio ([1]; Study Day 1, omeprazole 40 mg)","Tmax ([1]; Study Day 1, omeprazole 40 mg) [h]","M:P AUCinf Ratio, Central Value Reference [1]","M:P AUCt Ratio, Central Value Reference [1]","AUCinf [1, 8] [ng·h/mL]","AUCt [1, 8] [ng·h/mL]","Cmax [1, 8] [ng/mL]","RAUCinf = metabolite-to-omeprazole AUCinf ratio [1, 8]","RAUCt = metabolite-to-omeprazole AUCt ratio [1, 8]","Tmax [1, 8] [h]","M:P AUCinf Ratio, Central Value Test [1]","M:P AUCt Ratio, Central Value Test [1]",Effect on Plasma Exposure of Concomitant Drug (direction of change in AUC) [4],other results
COc1ccc2nc([S+]([O-])Cc3ncc(CO)c(OC)c3C)[nH]c2c1 (stereo not drawn) [5-hydroxyomeprazole],0.432,0.412,883,857,195,1.88,0.61,0.65,2.0,0.458,0.471,664,643,134,0.20,0.20,3.0,0.198,0.194,–,"t1/2 ([1]; Study Day 11, omeprazole 40 mg + elagolix 300 mg BID, harmonic mean): 1.97 h; decrease in AUCinf in all genotype subgroups ([1]; all CYP2C19 genotype subgroups, elagolix co-administration): 20-30%; decrease in AUCinf ([1]; elagolix 300 mg BID dosing): ~25%; decrease in Cmax ([1]; elagolix 300 mg BID dosing): approximately 30%; decrease in M:P AUCinf ratio ([1]; elagolix 300 mg BID dosing): 60%"
"CC(NC(C)(C)C)C(=O)c1cccc(Cl)c1.Cl (racemic) [bupropion, (±)-1-(3-chlorophenyl)-2-[(1,1-dimethylethyl)amino]-1-propanone hydrochloride, reference compound]",–,–,–,–,–,–,–,–,–,–,–,–,–,–,–,–,–,–,–,–,"Cmax upon co-administration with elagolix, in words [2, 9]: increased; increase in Cmax upon co-administration with elagolix ([2]; elagolix 300 mg BID): 25%; AUC(0-inf) ([2]; female, human, in vivo, 150 mg): 1130 ng·h/mL; AUC(0-t) ([2]; female, human, in vivo, 150 mg): 1090 ng·h/mL; Cmax ([2]; female, human, in vivo, 150 mg): 89.5 ng/mL; Tmax ([2]; female, human, in vivo, 150 mg): 4 h; changes in exposures when co-administered with elagolix, in words [3]: No clinically significant changes"
"COc1ccc2[nH]c([S+]([O-])Cc3ncc(C)c(OC)c3C)nc2c1 (stereo not drawn) [omeprazole, 5-methoxy-2-[[(4-methoxy3,5-dimethyl-2-pyridinyl)methyl]sulfinyl]-1H-benzimidazole, reference compound]",–,–,–,–,–,–,–,–,2.0,–,–,–,–,–,–,–,2.0,–,–,↑ omeprazole,"t1/2 ([1]; female, human, in vivo): 1.57 h; increase in AUCinf ([1]; female, human, in vivo, 300 mg): 1.8 fold; increase in Cmax ([1]; female, human, in vivo, 300 mg): 1.9 fold; Cmax and AUCinf values upon co-administration with elagolix, in words ([1]; human, in vivo): increased; Effect on Plasma Exposure of Concomitant Drug (direction of change in AUC) [5]: ↑ omeprazole"
"C#C[C@]1(O)CC[C@H]2[C@@H]3CCC4=CC(=O)CC[C@@H]4[C@H]3CC[C@@]21CC [levonorgestrel, 17α-Ethynyl-18-methylestr-4-en-17β-ol-3-one]",–,–,–,–,–,–,–,–,–,–,–,–,–,–,–,–,–,–,–,↓levonorgestrel,"decrease in plasma concentrations of levonorgestrel ([6]; COC containing 0.1 mg levonorgestrel, elagolix 200 mg twice daily): 27%; Ratio (90% CI) AUC, co-administration with elagolix vs medication alone [6, 10]: 0.73; Ratio (90% CI) Cmax, co-administration with elagolix vs medication alone [6, 10]: 0.97; AUC(0-inf) ([6]; Study Day 1: EE/LNG 0.02 mg/0.1 mg, read-out: AUCinf, Central Value Reference): 42.1 ng·h/mL; AUC(0-t) ([6]; Study Day 1: EE/LNG 0.02 mg/0.1 mg, read-out: AUCt, Central Value Reference): 31.1 ng·h/mL; Cmax ([6]; Study Day 1: EE/LNG 0.02 mg/0.1 mg, read-out: Cmax, Central Value Reference): 2.62 ng/mL; AUC(0-inf) ([6]; Study Day 18: EE/LNG 0.02 mg/0.1 mg + elagolix 200 mg, read-out: AUCinf, Central Value Test): 30.5 ng·h/mL; AUC(0-t) ([6]; Study Day 18: EE/LNG 0.02 mg/0.1 mg + elagolix 200 mg, read-out: AUCt, Central Value Test): 25 ng·h/mL; Cmax ([6]; Study Day 18: EE/LNG 0.02 mg/0.1 mg + elagolix 200 mg, read-out: Cmax, Central Value Test): 2.54 ng/mL; decrease in AUCinf [6, 11]: 27%; decrease in Cmax [6, 11]: 3%; Effect on Plasma Exposure of Concomitant Drug (direction of change in AUC) [5]: ↓ levonor-"
COc1ccc2nc(S(=O)(=O)Cc3ncc(C)c(OC)c3C)[nH]c2c1 [omeprazole sulfone],1.246,1.497,1400,1240,152,3.27,0.85,0.76,3.5,0.825,0.679,3450,3380,411,0.99,0.97,4.0,1.028,1.017,–,"Cmax and AUCinf values upon co-administration with elagolix, in words [1, 9]: increased; increase in AUCinf ([1]; elagolix 300 mg BID dosing): 2.5 fold; increase in Cmax ([1]; elagolix 300 mg BID dosing): 2.7 fold; increase in M:P AUCinf ratio ([1]; elagolix 300 mg BID dosing): 25%; increase in exposures (AUCinf) in CYP2C19 EM and IM subjects ([1]; extensive and intermediate metabolizers, elagolix co-administration): ~3 fold; AUCinf ratio, co-administered with elagolix vs omeprazole alone [1, 12]: about 2.55; Cmax ratio, co-administered with elagolix vs omeprazole alone [1, 12]: about 2.70"
